The values below come from patent publication US20170095565A1, “CHEMICALLY MODIFIED SMALL MOLECULES” (Nektar Therapeutics, priority 2003, published 2017).

In brackets after ≈: the same amount, converted by molar mass. Read-outs that look alike come from different tables or passages of the source.

A short description of data set [1]: In situ brain perfusion, blood-brain barrier uptake. Conditions: for Normalized Brain Uptake Rate (Mean ± SD): normalized to 5 μM dosing solution, 20 mL/min perfusion rate, 30 sec; for Reduction in brain uptake rate (BUR) compared to the parent compound (factor / times): vs parent drug.
Method: As utilized for these experiments, the in situ brain perfusion technique employed the intact rat brain to (i) determine drug permeation across the BBB under normal physiological conditions, and (ii) to study transport mechanisms such as passive diffusion verses carrier mediated transport.
Perfusion was performed using the single time-point method. Briefly, the perfusion fluid (perfusate) containing the test compound(s) was infused into rats via the left external carotid artery at a constant rate by an infusion pump (20 mL/min). Perfusion flow rate was set to completely take over fluid flow to the brain at normal physiologic pressure (80-120 mm Hg). The duration of the perfusion was 30 seconds. Immediately following the perfusion, the brain vasculature was perfused for an additional 30 seconds with drug-free perfusate to remove residual drug. The pump was turned off and the brain was then immediately removed from the skull. Left-brain samples from each rat were first weighed and then homogenized using a Polytron homogenizer. Four (4) mL of 20% methanol was added to each rat brain for homogenization. After homogenization, the total volume of homogenate was measured and recorded.
A measured amount of the homogenate was diluted with organic solvent and subsequently centrifuged. The supernatant was removed, evaporated in a stream of nitrogen and reconstituted and analyzed by LC/MS/MS. Quantification of drug concentrations in brain homogenate was performed against calibration curves generated by spiking the drugs into blank (i.e. drug-free) brain homogenate. Analysis of the drug concentrations in brain homogenates was carried out in triplicate, and the values were used to calculate the brain uptake rate in pmole per gram of rat brain per second of perfusion.
All the data was normalized to a 5 μM dosing solution at 20 mL/min perfusion rate for 30 sec.
Data set [2] is described as follows: Solubility of tested compounds (Table 1).
The nature of data set [3]: Oral bioavailability: plasma concentration after oral gavage. Format: in vivo, Sprague Dawley rats. Conditions: rats. As for the experimental part: Female Sprague Dawley® rats (150-200 g) were obtained from Harlan Labs. […] The animals were fasted overnight (day −1), but water was provided ad libitum.
On the morning of dosing (day 0), each rat was weighed and the cannulas flushed with heparin (1000 U/mL). With the aid of a feeding tube, the animals were then dosed orally (gavage) with aqueous formulations containing either the PEGylated or the free drug. The dose was determined on a mg/kg body weight basis. […] At specific time intervals (1, 2 and 4 hours), blood samples (approximately 1.0 mL) were removed through the cannula, placed in 1.5 mL centrifuge tubes containing 14 μL of heparin, mixed and centrifuged to separate the plasma. The plasma samples were frozen (<−70° C.) until assayed. The plasma samples were purified by a precipitation technique and the analyte extracted and assayed using a high performance liquid chromatography (LC) method with a mass selective detector (MSD). […] When appropriate, an internal standard was used in the analysis.

[4] abbreviates: PEGylated compounds normalized to 1 mg/kg dose.

`C=CCN1CC[C@]23c4c5ccc(O)c4O[C@H]2[C@H](OCCOCCOCCOCCOCCOC)CC[C@@]3(O)[C@H]1C5` [PEG5-Nal, α,β-6-CH3—(OCH2CH2)5—O-naloxol]: in data set [1], the “Normalized Brain Uptake Rate (Mean ± SD)” value is given as 0.96 ± 0.36 pmole/gm brain/sec and the “Reduction in brain uptake rate (BUR) compared to the parent compound (factor / times)” value (“Reduction … (factor / times)” for short) amounted to 16.

On to `C=CCN1CC[C@]23c4c5ccc(O)c4O[C@H]2[C@H](OCCOCCOCCOCCOCCOCCOCCOC)CC[C@@]3(O)[C@H]1C5` [β-PEG7-Nal, α,β-6-CH3—(OCH2CH2)7—O-naloxol], for which, in data set [2], the Solubility (commonly how much of the substance goes into solution per volume) is reported as “soluble”. For the same molecule, in data set [3] (setting [4]), the “Mean Plasma Concentration ± SD, 1 hr” value turned out to be 50.41 ± 36.44 ng/mL and the “Mean Plasma Concentration ± SD, 2 hr” value amounted to 50.08 ± 25.28 ng/mL. Moreover, the “Normalized Brain Uptake Rate (Mean ± SD)” value in data set [1] is recorded as 0.70 ± 0.19 pmole/gm brain/sec.

As for `C=CCN1CC[C@]23c4c5ccc(O)c4O[C@H]2C(=O)CC[C@@]3(O)[C@H]1C5` [Naloxone, naloxone, reference compound], the “Percentage of Active Remaining After Incubation with Liver Microsomes” value by setting is: (0 min) 100.0%; (20 min) 47.1%; (40 min) 27.6%; (60 min) 15.6%. In data set [1], the “Normalized Brain Uptake Rate (Mean ± SD)” value was determined as 15.64 ± 3.54 pmole/gm brain/sec.

As for `COCCOCCOCCNC(=O)\C=C(C)/C=C/C=C(C)/C=C/C1=C(C)CCCC1(C)C` [PEG3-13-cis-RA, CH3(OCH2CH2)3—NH-13-cis-Retinamide], the Solubility in data set [2] amounted to 3.13 µM (≈ 1.39 µg/mL). In data set [3] (normalized to a 6 mg/kg dose), the “Mean Plasma Concentration ± SD, 1 hr” value came out at 131.8 ± 55.0 ng/mL and the “Mean Plasma Concentration ± SD, 2 hr” value was 158.0 ± 133.0 ng/mL. In addition, in data set [1], the “Normalized Brain Uptake Rate (Mean ± SD)” value was 79.65 ± 20.91 pmole/gm brain/sec.

As to `COCCOCCOCCOCCOCCOCCOCCOCCOCCOCCOCCNC(=O)\C=C(C)/C=C/C=C(C)/C=C/C1=C(C)CCCC1(C)C` [PEG11-13-cis-RA, CH3—(OCH2CH2)11—NH-13-cis-Retinamide], the Solubility result in data set [2] is “soluble”. For the same molecule, in data set [3] (normalized to a 6 mg/kg dose), the “Mean Plasma Concentration ± SD, 1 hr” value is reported as 21.8 ± 7.1 ng/mL and the “Mean Plasma Concentration ± SD, 2 hr” value turned out to be 58.2 ± 43.5 ng/mL. For the same molecule, in data set [1], the “Normalized Brain Uptake Rate (Mean ± SD)” value is on record as 17.77 ± 1.68 pmole/gm brain/sec and the “Reduction … (factor / times)” value is on record as “five”.

For the molecule `COCCOCCOCCOCCOCCOCCOCCNC(=O)\C=C(C)/C=C/C=C(C)/C=C/C1=C(C)CCCC1(C)C` [PEG7-13-cis-RA, CH3—(OCH2CH2)7—NH-13-cis-Retinamide], in data set [2], the Solubility came to 58.3 µM (≈ 36.3 µg/mL). Further, in data set [3] (normalized to a 6 mg/kg dose), the “Mean Plasma Concentration ± SD, 1 hr” value is listed as 44.0 ± 13.0 ng/mL and the “Mean Plasma Concentration ± SD, 2 hr” value is reported as 38.7 ± 4.2 ng/mL. Also, in data set [1], the “Normalized Brain Uptake Rate (Mean ± SD)” value is 24.15 ± 1.49 pmole/gm brain/sec and the “Reduction … (factor / times)” value is given as “four”.

For `C=CCN1CC[C@]23c4c5ccc(O)c4O[C@H]2C(OCCOCCOCCOC)CC[C@@]3(O)[C@H]1C5` (some centres unmarked) [PEG3-Nal, 6-CH3—(OCH2CH2)3-Naloxol], the “Normalized Brain Uptake Rate (Mean ± SD)” value in data set [1] is 4.67 ± 3.57 pmole/gm brain/sec.

With `CC1=C(/C=C/C(C)=C/C=C/C(C)=C\C(=O)O)C(C)(C)CCC1` [13-cis-Retinoic Acid, 13-cis-retinoic acid, reference compound], the Solubility in data set [2] was found to be 0.47 µM (≈ 0.141 µg/mL). Further, in data set [3] (normalized to a 6 mg/kg dose), the “Mean Plasma Concentration ± SD, 1 hr” value was 43.3 ± 24.0 ng/mL and the “Mean Plasma Concentration ± SD, 2 hr” value was 23.3 ± 14.8 ng/mL. For the same molecule, the “Normalized Brain Uptake Rate (Mean ± SD)” value in data set [1] came out at 102.54 ± 37.31 pmole/gm brain/sec.

Turning to `COCCOCCOCCOCCOCCNC(=O)\C=C(C)/C=C/C=C(C)/C=C/C1=C(C)CCCC1(C)C` [PEG5-13-cis-RA, CH3—(OCH2CH2)5—NH-13-cis-retinamide], the Solubility entry in data set [2] is “soluble”. In data set [3] (normalized to a 6 mg/kg dose), the “Mean Plasma Concentration ± SD, 1 hr” value was found to be 77.7 ± 31.6 ng/mL and the “Mean Plasma Concentration ± SD, 2 hr” value turned out to be 61.6 ± 57.1 ng/mL. The “Normalized Brain Uptake Rate (Mean ± SD)” value in data set [1] is given as 58.49 ± 13.44 pmole/gm brain/sec.

Regarding `C=CCN1CC[C@]23c4c5ccc(O)c4O[C@H]2[C@H](OCCOCCOCCOCCOCCOCCOCCOC)CC[C@@]3(O)[C@H]1C5` [PEG7-Nal, α,β-6-CH3—(OCH2CH2)7—O-naloxol], the “Reduction … (factor / times)” value in data set [1] came to 16.
